This is an account of results in patent US20130045475A1, “2-Nitrobenzyl-Modified Ribonucleotides” (ALERE SAN DIEGO, INC., priority 2004, published 2013).

The target in experiment [1] is T1, T7 RNA polymerase (Escherichia phage T7, UniProt P00573). As for the experimental part:
The reaction was started by the addition of 20 μl of 10 mM 2′-(2-Nitrobenzyl)-ATP and incubated for 2 hours at 37° C. Subsequently the reaction was split into 4 samples and subjected to deprotection: two samples were exposed to UV irradiation as described above, two untreated samples were incubated for the same period of time at ambient temperature. Deprotection was followed by addition of 1 volume of either extension mix containing 250 μM rNTPs in transcription buffer, or addition of transcription buffer only. Samples were then incubated for another 1 hour at 37° C.
Processing, separation and detection of products was done as described above.

Experiment [2] concerns the target T1, T7 RNA polymerase. Description: Primer extension reactions with RNA/DNA scaffold and T7 RNA polymerase. It counts as biochemical. Also noted: purchased Fermentas. The following applies: for extension of the RNA primer of the scaffold: sole nucleotide offered, template encodes rATP then rGTP, FIG. 2B. As for the experimental part: The nucleic acid scaffolds were formed by incubating 1 nmol RNA-1 (5′-biotin-AACUGCGGCGAU-3′ (SEQ ID NO:1)) and 1 nmol DNA-1 (5′-[…]-3′ (SEQ ID NO:2)) in 100 μl transcription buffer (200 mM Tris-HCl (pH 7.9 at 25° C.), 30 mM MgCl2, 50 mM DTT, 50 mM NaCl, 10 mM spermidine) for 10 minutes at 70° C. Annealing occurred by slowly lowering the temperature to 25° C. The concentration of hybrid was assumed to be 10 μM.
For the primer extension reactions 2 pmoles of scaffold were mixed with 10 units of T7 RNA polymerase (Fermentas) in 9 μl transcription buffer to allow the transcription complex to form. Reactions were started by the addition of 1 μl of 1 mM nucleotide solution and incubated for 20 minutes at 37° C. Reactions were stopped by addition of 2 μl 500 mM EDTA and cooled on ice. UV irradiation was done for 10 minutes on a UV lamp.
Samples were precipitated, dissolved in formamide loading buffer and resolved on a denaturing 16% polyacrylamide gel (8M urea). Gels were electroblotted onto nylon-membrane (Osmonics, USA) in blotting buffer (0.5×TBE). Blots were incubated in blocking buffer (1×TBSTw/1% blocking reagent (Roche)) for 1 hour at room temperature to avoid non-specific noise, incubated with 0.5 μg/ml streptavidin-HRP (Sigma) in blocking buffer for 1 hour and washed extensively in Tris buffered saline containing 0.1% Tween-20. Detection was performed using a chemiluminescent substrate according to the instructions of the manufacturer (Pierce).

The target of experiment [3] is T1, T7 RNA polymerase. The following applies: elongation mode complexes on duplex DNA substrates.

T1 sequence (P00573 whole entry): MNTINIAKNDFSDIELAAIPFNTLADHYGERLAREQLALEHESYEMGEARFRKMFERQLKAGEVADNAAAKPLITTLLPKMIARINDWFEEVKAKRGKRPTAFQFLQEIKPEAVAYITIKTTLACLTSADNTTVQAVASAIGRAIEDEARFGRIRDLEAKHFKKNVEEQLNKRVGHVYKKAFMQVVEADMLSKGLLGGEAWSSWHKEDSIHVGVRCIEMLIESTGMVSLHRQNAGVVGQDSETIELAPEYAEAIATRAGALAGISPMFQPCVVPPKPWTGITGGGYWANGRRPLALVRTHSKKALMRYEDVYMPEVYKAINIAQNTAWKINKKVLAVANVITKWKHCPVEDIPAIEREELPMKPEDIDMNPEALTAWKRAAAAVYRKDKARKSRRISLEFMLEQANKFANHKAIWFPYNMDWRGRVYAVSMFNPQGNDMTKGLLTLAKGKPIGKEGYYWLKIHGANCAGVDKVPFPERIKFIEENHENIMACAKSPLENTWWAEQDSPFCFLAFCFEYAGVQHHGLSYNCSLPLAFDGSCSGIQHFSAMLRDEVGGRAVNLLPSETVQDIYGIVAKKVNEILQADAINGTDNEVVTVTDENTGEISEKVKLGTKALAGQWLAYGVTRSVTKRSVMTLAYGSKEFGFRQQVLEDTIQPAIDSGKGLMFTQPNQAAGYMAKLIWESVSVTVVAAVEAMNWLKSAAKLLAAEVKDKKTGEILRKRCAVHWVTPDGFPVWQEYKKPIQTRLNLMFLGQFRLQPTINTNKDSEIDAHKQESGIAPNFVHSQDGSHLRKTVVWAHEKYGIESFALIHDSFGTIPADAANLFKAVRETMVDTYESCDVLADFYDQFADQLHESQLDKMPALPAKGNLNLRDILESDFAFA

For the compound `Nc1ncnc2c1ncn2[C@@H]1O[C@H](COP(=O)(O)OP(=O)(O)OP(=O)(O)O)[C@@H](O)[C@H]1OCc1ccccc1[N+](=O)[O-]` [2′-(2-Nitrobenzyl)-ATP], the “reversal of termination on deprotection” value at T7 RNA polymerase [1] (UV irradiation 10 minutes, then 250 μM rNTPs extension mix, 1 hour at 37° C., FIG. 3 lane 4) is “Elongation of the transcript can resume upon removal of the protecting 2-Nitrobenzyl group by UV irradiation”. The termination of transcription entry on T7 RNA polymerase [1] (scaffold + T7 RNAP + 2′-(2-Nitrobenzyl)-ATP 2 hours at 37° C., no UV, then rNTPs, FIG. 3 lane 3) is listed as “acts as a bona fide terminator of transcription”. For the same compound, the “incorporation of the nucleotide analog into a growing RNA chain” value at T7 RNA polymerase [2] (RNA/DNA scaffold, 10 units T7 RNA polymerase, 1 μl of 1 mM nucleotide solution, 20 minutes at 37° C., gel mobility before and after UV) was “incorporation into the nascent RNA chain by T7 RNAP”. For the same compound, the “incorporation into a growing RNA chain” value at T7 RNA polymerase [3] was “we have not observed this activity”.

As to `Nc1ncnc2c1ncn2[C@@H]1O[C@H](COP(=O)(O)OP(=O)(O)OP(=O)(O)O)[C@@H](O)[C@H]1O` [rATP, adenosine 5′-triphosphate], the “extension of the RNA primer of the scaffold” value at T7 RNA polymerase [2] is given as “extended by one or two bases”.

On to `Nc1ccn([C@@H]2O[C@H](COP(=O)(O)OP(=O)(O)OP(=O)(O)O)[C@@H](O)[C@H]2O)c(=O)n1` [rCTP, cytidine 5′-triphosphate], for which the “extension of the RNA primer of the scaffold” value on T7 RNA polymerase [2] was “extension is limited to one base only”.
